# Test results taken from patent US20170226518A1, “COMPOSITIONS AND METHODS FOR TREATING CANCER” (Autotelic LLC, priority 2016, published 2017).
# In the oligonucleotide strings, read from the 5' end, every base follows the letter of its sugar. An asterisk marks phosphorothioate; unmarked linkages are phosphodiester. Other units and linkages are bracketed, terminal groups are in braces. A string of capitals states the bases alone. d = 2'-deoxy (DNA)
# How the values were obtained:
# [1] = system: A-172 glioma cells; test: Proliferation of A-172 glioma cells; type: cell-based; conditions: 7 days, treatment schedule 2*2/1*3 d
# Description: A-172 glioma cells were treated with a combination of AP12009 (trabedersen) 0 to 10 μM) and different concentrations of TMZ (temozolomide) for 7 days (treatment schedule 2*2/1*3 d).
# In summary there is no clear beneficial effect in combining AP12009 with TMZ in A-172 cells.
# [2] = system: WiDr colon cancer cells; test: Cellular proliferation of WiDr colon cancer cells in vitro; type: cell-based; conditions: 10 μM AP12009
# Text: The aim of the study was to determine the effect of AP12009 (trabedersen) treatment in combination with 5-Fluorouracil (5-FU) on TGFβ2 secretion and on cellular proliferation of HUP-T3 pancreatic cancer cells and WiDr colon cancer cells in vitro.
# [3] = Phase I/II dose escalation study P-001: safety and tolerability (MTD, DLT, TEAE, SAE), i.v. infusion; type: in vivo, human
# Description: Over-expression of transforming growth factor-beta 2 (TGF-β2) is associated with poor prognosis and plays a key role for malignant progression of various tumors by inducing proliferation, metastasis, angiogenesis and immunosuppression. P-001 trial of trabedersen—Safety and Tolerability of AP 12009 (trabedersen), Administered I.V. in Patients With Advanced Tumors Known to Overproduce TGFβ2, was evaluated to determine if treatment with trabedersen primed the tumors to subsequent chemotherapy.
# In the instant study, the primary objective was to determine the Maximum Tolerated Dose (MTD) and the Dose Limited Toxicity (DLT) of two cycles of trabedersen administered intravenously (i.v.) for either 7 days every other week (i.e. 7 days on/7 days off) or for 4 days every other week (4 days on/10 days off). The secondary objective included assessment of antitumor activity of trabedersen administered intravenously for either 7 days every other week (i.e. 7 days on/7 days off) or for 4 days every other week (4 days on/10 days off).
# The escalation scheme of this study aimed to determinate the MTD of two cycles of trabedersen (so called ‘core study period’) administered as a continuous i.v. infusion for 7 days every other week (7-days-on/7-days-off) or for 4 days every other week (4-days-on/10-days-off).
# In general, it was planned to enroll a cohort of at least 3 evaluable patients per treatment group. For each cohort, the safety data obtained until end of the core study period (period for DLT-assessment, Cycle 1 and Cycle 2) were assessed in an interim analysis and evaluated by a Data and Safety Monitoring Board (DSMB). […] If 2 of these 3 patients experienced a DLT, the number of evaluable patients for the subsequent treatment group was increased to 6 for further evaluation of toxicity. Patients who were withdrawn from the study due to adverse events (AEs) attributed to DLT by the treating clinician, were not replaced but were used to determine the MTD and to evaluate the safety of the study drug. If patients were withdrawn due to other reasons, they were replaced until the treatment group was complete.
# The MTD was determined according to the following procedure: If 2 out of 3 patients of 1 cohort experienced a DLT, 3 more patients were enrolled in the same treatment group. If at least 1 of these additional 3 patients also met the toxicity criteria for a DLT, the MTD for two cycles was determined; otherwise the dose escalation was continued upon agreement with the DSMB. MTD for two cycles was then defined as the dose at which no more than 2 out of 3, or 2 out of 6 patients of the same treatment group experienced a DLT. This procedure was followed until the MTD was reached.
# After dose escalation had been completed, an additional larger cohort of patients was enrolled and treated with a dose of 140 mg/m^2/day employing the 4-days-on/10-days-off schedule, with endorsement by the DSMB. This cohort was to include at least 12 patients with a histologically or cytologically confirmed diagnosis of stage III or IV pancreatic cancer, corresponding to AJCC 1997 stage IVa and IVb, respectively, and at least 12 patients with stage III or IV melanoma.
# The safety population comprised of 61 patients, representing all patients for whom at least once a trabedersen infusion was started. According to the protocol, the MTD was determined according to the following procedure: if 2 out of 3 patients of one cohort experience dose-limiting toxicity, 3 more patients were enrolled in the same treatment group. If at least 1 more patient of this second cohort met the toxicity criteria, MTD for two cycles has been determined (otherwise escalation was continued). MTD for two cycles was then defined as the dose at which no more than 2 out of 3 or 2 out of 6 patients of the same treatment group experienced DLT. […] In the case that 2 patients of the first cohort experienced DLTs that clearly indicated attainment of the MTD, the second cohort could also be omitted. […]
# [4] = 4-days-on and 10-days-off schedule
# [5] = 4-days-on, 10-daysoff schedule (N = 44)
# [6] = 7-days-on and 7-days-off schedule
# [7] = 7-days-on, 7-daysoff schedule (N = 17)
substance,measurement,setting,value
trabedersen: TGFβ2 specific phosphorothioate antisense oligodeoxynucleotide with the sequence 5′-CGGCATGTCTATTTTGTA-3′ (SEQ ID No: 1) (antisense dC*dG*dG*dC*dA*dT*dG*dT*dC*dT*dA*dT*dT*dT*dT*dG*dT*dA),effect on cell proliferation,[1],slightly reduced cell proliferation
same,cell proliferation (% of untreated control),[2],76%
same,DLT observed,"[3]; 140 mg/m^2/day, 4-days-on and 10-days-off schedule, one patient",dose-limiting Grade 3 upper gastrointestinal hemorrhage
same,patients who experienced a DLT,"[3]; 240 mg/m^2/day, 7-days-on and 7-days-off, 2 Grade 3 thrombocytopenia, 1 Grade 3 maculopapular rash",3 patients
same,frequency of patients with TEAEs that led to treatment discontinuation,[3]; [4],15.9%
same,patients with TEAEs that led to treatment discontinuation,[3]; [4],7 patients
same,Any SAE: No. (%) of patients with SAE,[3]; [5],18 (40.9) No. (%) of patients
same,Any SAE: No. of SAEs,[3]; [5],28 No. of SAEs
same,Ascites: No. (%) of patients with SAE,[3]; [5],0 No. (%) of patients
same,Cancer Pain: No. (%) of patients with SAE,[3]; [5],2 (4.5) No. (%) of patients
same,Cancer Pain: No. of SAEs,[3]; [5],2 No. of SAEs
same,Catheter related Infection: No. (%) of patients with SAE,[3]; [5],1 (2.3) No. (%) of patients
same,Catheter related Infection: No. of SAEs,[3]; [5],1 No. of SAEs
same,Cholangitis: No. (%) of patients with SAE,[3]; [5],3 (6.8) No. (%) of patients
same,Cholangitis: No. of SAEs,[3]; [5],3 No. of SAEs
same,Cholestasis: No. (%) of patients with SAE,[3]; [5],1 (2.3) No. (%) of patients
same,Cholestasis: No. of SAEs,[3]; [5],1 No. of SAEs
same,GI hemorrhage: No. (%) of patients with SAE,[3]; [5],1 (2.3) No. (%) of patients
same,GI hemorrhage: No. of SAEs,[3]; [5],2 No. of SAEs
same,Pneumonia: No. (%) of patients with SAE,[3]; [5],0 No. (%) of patients
same,Upper GI hemorrhage: No. (%) of patients with SAE,[3]; [5],1 (2.3) No. (%) of patients
same,Upper GI hemorrhage: No. of SAEs,[3]; [5],1 No. of SAEs
same,frequency of patients with TEAEs that led to treatment discontinuation,[3]; [6],41.2%
same,patients with TEAEs that led to treatment discontinuation,[3]; [6],7 patients
same,daily dose of MTD,"[3]; 7-days-on and 7-days-off schedule, approx.",approx. 4 mg/kg/day
same,Any SAE: No. (%) of patients with SAE,[3]; [7],12 (70.6) No. (%) of patients
same,Any SAE: No. of SAEs,[3]; [7],28 No. of SAEs
same,Ascites: No. (%) of patients with SAE,[3]; [7],3 (17.6) No. (%) of patients
same,Ascites: No. of SAEs,[3]; [7],3 No. of SAEs
same,Cancer Pain: No. (%) of patients with SAE,[3]; [7],0 No. (%) of patients
same,Catheter related Infection: No. (%) of patients with SAE,[3]; [7],2 (11.8) No. (%) of patients
same,Catheter related Infection: No. of SAEs,[3]; [7],2 No. of SAEs
same,Cholangitis: No. (%) of patients with SAE,[3]; [7],1 (5.9) No. (%) of patients
same,Cholangitis: No. of SAEs,[3]; [7],1 No. of SAEs
same,Cholestasis: No. (%) of patients with SAE,[3]; [7],1 (5.9) No. (%) of patients
same,Cholestasis: No. of SAEs,[3]; [7],1 No. of SAEs
same,GI hemorrhage: No. (%) of patients with SAE,[3]; [7],2 (11.8) No. (%) of patients
same,GI hemorrhage: No. of SAEs,[3]; [7],3 No. of SAEs
same,Pneumonia: No. (%) of patients with SAE,[3]; [7],3 (17.6) No. (%) of patients
same,Pneumonia: No. of SAEs,[3]; [7],3 No. of SAEs
same,Upper GI hemorrhage: No. (%) of patients with SAE,[3]; [7],1 (5.9) No. (%) of patients
same,Upper GI hemorrhage: No. of SAEs,[3]; [7],1 No. of SAEs
same,Maximum Tolerated Dose (MTD),"[3]; 4 days on and 10 days off regimen, MTD not reached at highest dose tested",> 330 mg/m^2/d
same,Maximum Tolerated Dose (MTD),"[3]; 7 days on and 7 days off regimen, continuous i.v. infusion, two cycles",160 mg/m^2/d
same,Any SAE: No. (%) of patients with SAE,[3]; Total (N = 61),30 (49.2) No. (%) of patients
same,Any SAE: No. of SAEs,[3]; Total (N = 61),56 No. of SAEs
same,Ascites: No. (%) of patients with SAE,[3]; Total (N = 61),3 (4.9) No. (%) of patients
same,Ascites: No. of SAEs,[3]; Total (N = 61),3 No. of SAEs
same,Cancer Pain: No. (%) of patients with SAE,[3]; Total (N = 61),2 (3.3) No. (%) of patients
same,Cancer Pain: No. of SAEs,[3]; Total (N = 61),2 No. of SAEs
same,Catheter related Infection: No. (%) of patients with SAE,[3]; Total (N = 61),3 (4.9) No. (%) of patients
same,Catheter related Infection: No. of SAEs,[3]; Total (N = 61),3 No. of SAEs
same,Cholangitis: No. (%) of patients with SAE,[3]; Total (N = 61),4 (6.6) No. (%) of patients
same,Cholangitis: No. of SAEs,[3]; Total (N = 61),4 No. of SAEs
same,Cholestasis: No. (%) of patients with SAE,[3]; Total (N = 61),2 (3.3) No. (%) of patients
same,Cholestasis: No. of SAEs,[3]; Total (N = 61),2 No. of SAEs
same,GI hemorrhage: No. (%) of patients with SAE,[3]; Total (N = 61),3 (4.9) No. (%) of patients
same,GI hemorrhage: No. of SAEs,[3]; Total (N = 61),3 No. of SAEs
same,Pneumonia: No. (%) of patients with SAE,[3]; Total (N = 61),3 (4.9) No. (%) of patients
same,Pneumonia: No. of SAEs,[3]; Total (N = 61),3 No. of SAEs
same,Upper GI hemorrhage: No. (%) of patients with SAE,[3]; Total (N = 61),2 (3.3) No. (%) of patients
same,Upper GI hemorrhage: No. of SAEs,[3]; Total (N = 61),2 No. of SAEs
same,frequency of patients with TEAEs that led to treatment discontinuation,[3]; all patients,23.0%
same,patients with TEAEs that led to treatment discontinuation,[3]; all patients,14 patients
same,total of TEAEs that led to treatment discontinuation,[3]; all patients,23 TEAEs
same,frequency of patients with TEAEs that led to treatment discontinuation,[3]; colorectal cancer,40.0%
same,patients with TEAEs that led to treatment discontinuation,[3]; colorectal cancer,2 patients
same,frequency of patients with TEAEs that led to treatment discontinuation,[3]; melanoma,15.8%
same,patients with TEAEs that led to treatment discontinuation,[3]; melanoma,3 patients
same,frequency of patients with TEAEs that led to treatment discontinuation,[3]; pancreatic cancer,24.3%
same,patients with TEAEs that led to treatment discontinuation,[3]; pancreatic cancer,9 patients
same,patients for whom a DLT was proclaimed,"[3]; whole study: 2 pancreatic carcinoma, 2 colorectal cancer",4 patients
